In one assay the target is T1, EGFR (Homo sapiens, UniProt P00533).
T1 construct: The intracellular portion of EGFR started at nucleotide 2189 (corresponding to amino acid 667) and ended at the termination codon; made in house; host or cells: Sf9 insect cells (baculovirus)
Kind of assay: EGFR Kinase Assay. It is filed as biochemical. Conditions: GST-EGFR, ATP 5 μM. In outline: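 GST-fused human EGFR intracellular domain (from aa 667), Sf9-expressed, phosphorylated biotinylated polyGluTyr with 5 μM ATP plus γ-33P ATP in Tris pH 8.0, MgCl2, vanadate, 1 mM DTT, 1 h at 30 °C. Streptavidin Flashplate scintillation read; triplicate 16-point half-log series from 200 uM; IC50 from % inhibition vs log concentration, else % inhibition at 2 μM.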

The next assay deals with T2, HER-2 (Homo sapiens, UniProt P04626).
T2 construct: His6 with thrombin site (N); purchased Proqinase (Freiburg, Germany)
T2 sequence (P04626 679-1255): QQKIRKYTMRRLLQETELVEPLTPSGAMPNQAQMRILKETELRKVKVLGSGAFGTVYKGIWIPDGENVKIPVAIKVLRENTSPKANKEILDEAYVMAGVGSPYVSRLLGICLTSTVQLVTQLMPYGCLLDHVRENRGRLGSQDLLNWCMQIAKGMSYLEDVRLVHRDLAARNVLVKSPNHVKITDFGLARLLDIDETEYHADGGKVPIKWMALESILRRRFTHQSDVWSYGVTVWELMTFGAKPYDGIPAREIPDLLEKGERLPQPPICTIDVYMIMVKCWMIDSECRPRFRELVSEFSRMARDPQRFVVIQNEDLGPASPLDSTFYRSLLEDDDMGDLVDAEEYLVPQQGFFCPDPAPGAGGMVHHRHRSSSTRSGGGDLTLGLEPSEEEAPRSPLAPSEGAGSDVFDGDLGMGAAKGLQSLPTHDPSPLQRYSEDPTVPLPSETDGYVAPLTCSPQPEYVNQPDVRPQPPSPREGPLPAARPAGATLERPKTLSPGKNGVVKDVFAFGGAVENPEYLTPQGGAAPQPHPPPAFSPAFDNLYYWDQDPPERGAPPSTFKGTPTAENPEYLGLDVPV
Kind of assay: HER-2 Kinase Assay. It is filed as biochemical. The conditions noted are these: for pIC50: value in parentheses; for inhibition at 1 µM: test concentration of 1 μM. In outline: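 GST/HIS6-tagged HER-2 aa 679–1255 kinase with biotinylated polyGluTyr (1.5 ng/μL), 1 μM ATP plus γ-33P-ATP, Mg2+/Mn2+, DTT, Hepes pH 7.5; 1 h at 30 °C. Substrate phosphorylation captured on streptavidin scintillation plates after EDTA/PBS washes; values are % inhibition at 1 μM or IC50.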

Another assay has as its target T3, HER-4 (Homo sapiens, UniProt Q15303).
T3 construct: His6 with thrombin site (N); purchased Proqinase (Freiburg, Germany)
Kind of assay: HER-4 Kinase Assay. It is filed as biochemical. The method, then:
The HER-4 kinase used was purified at Proqinase (Freiburg, Germany) from a construct that consisted of a fusion of GST (Glutathione-S-Transferase), HIS6-Thrombin and the nucleotides encoding amino acids 676 to 1307 of HER-4 (Accession NM 005235).
A mixture of a 10× kinase reaction buffer (600 mM Hepes at pH 7.5, 30 mM Magnesium Chloride, 0.03 mM Sodium Vanadate and 500 μg/mL PEG 20,000), DTT (1.2 mM final from a 10 mM) stock), ATP (1 μM from a 10 mM stock), biotinylated polyGluTyr (1.5 ng/μL final from stock of 1 μg/μL) prepared by Upstate Biotechnologies, Lake Placid, N.Y.), Manganese Chloride (3 mM final from a 1 M stock), γ-^33P-ATP (10 μCl/mL stock) and water (70 μL/well) was added to each well of a Streptavidin Flashplate (Cat. # SMP103, NEN, Boston, Mass.).
Test compound stock (1 μL) was added to the appropriate wells. Diluted GST HER-4 kinase (6.7 ng/μL diluted into 50 mM Tris-HCl at pH 8.0 and 0.1% bovine serum albumin) (30 μL) was added (total volume of 200 ng/well) to initiate the reactions.
The reaction plates were incubated at 30° C. for 1 hr. The reaction was terminated by aspirating the reaction mixture from the plate wells and washing the wells three times with a 1×PBS stop buffer (300 μL) and 100 mM EDTA. After the final wash, the same stop buffer (200 μL) was again added to the wells. The plates were then sealed and read on the TopCount scintillation counter.
For a series of test concentrations, the IC50 was derived by graphing percent inhibition against the log of the concentrations tested for a given compound.

The subject of the next assay is N87 cells. The assay can be described thus: In Vivo Models - Inhibition of Tumor Growth, N87. The conditions noted are these: Mus musculus, po, 720 h, oral daily for 30 days, athymic mice, read-out: percent inhibition N87. The method, then:
(§1) In Vivo Models—Inhibition of Tumor Growth
(§2) The ability of test compounds to inhibit unregulated growth of human tumor cells in vivo was evaluated by implanting human tumor cells into the hindflank of athymic mice, administering a test compound and then quantifying any change in tumor size.
(§3) Human epidermoid A431 carcinoma, N87 cells and BT474 cells were implanted subcutaneously into the hindflank of female athymic mice (Charles River) and allowed to grow for 6-10 days. After a measurable tumor was established (as determined by baseline caliper measurement), the animal was administered an oral dose of the test compound daily for a period of 30 days. Tumor size was measured every five days and the degree of inhibition was determined by comparing drug-treated animals to vehicle-treated animals.
(§4) Variations of this method are intended to include intraperitoneal injection or intravenous infusion as the route of administration and administration of the test compound either alone or in a combination therapy.
(§5) The inhibition of tumor growth values are shown in Table 8 at various test concentrations, as indicated. For compounds with multiple values at one test concentration, each value represents a separate assay result.

Assay [1] deals with Human epidermoid A431 carcinoma. The assay can be described thus: In Vivo Models - Inhibition of Tumor Growth, A431. Conditions: oral daily for 30 days, athymic mice. How it is done: as §1, §2, §3, §4, §5
The subject of a further assay is BT474 cells. Kind of assay: In Vivo Models - Inhibition of Tumor Growth, BT474. Conditions: 100 mg/kg, oral daily for 30 days, athymic mice. The method, then:
as §1, §2, §3, §4, §5

The next assay deals with BT474 breast carcinoma. The assay can be described thus: Cell Proliferation Inhibition Assay, BT474 (14C-thymidine). It is filed as cell-based. Conditions: Homo sapiens, BT-474, C14 method. From the text:
(§6) Cell Proliferation Inhibition Assay
(§7) The ability of a test compound to inhibit unregulated cell proliferation may be determined by measuring incorporation of ^14C-labelled thymidine into newly synthesized DNA within cell lines derived from carcinomas originating from several tissues. Accordingly, the effect of a test compound on proliferation of cells with a variety of phenotypes may be determined.
(§8) Carcinoma cell lines used include the HeLa cervical adenocarcinoma from the American Type Culture Collection (ATCC Cat. #CCL2), A375 malignant melanoma (ATCC Cat. #CRL-1619), HCT-116 colon carcinoma (ATCC Cat. #CCL-247), SKBR3 breast carcinoma (ATCC Cat. #HTB-30) and BT474 breast carcinoma (ATCC Cat. #HTB-20).
(§9) The carcinoma cells were trypsinized and counted. The cells (3000-8000 count) were added to each well of a 96-well CytoStar tissue culture treated scintillating microplate (Amersham #RPNQ0160) in complete medium (100 μL) and the plate was then incubated in complete medium for 24 hrs at 37° C. in an inert atmosphere containing 5% CO2.
(§10) Test compound (1 μL) in 100% DMSO was added to the plate test-wells with DMSO only added to control-wells. The plate was incubated in complete medium for a second 24 hr period at 37° C. in an atmosphere containing 5% CO2.
(§11) An aliquot of a solution of Methyl ^14C-thymidine (56 mC/mmol) (NEN #NEC568 or AMersham #CFA532) and complete medium (20 uL to provide 0.2 μCl/well) was then added to each well and the plate was incubated for a third 24 hr period at 37° C. in an atmosphere containing 5% CO2.
(§12) The plate contents were then discarded, the plate washed twice with PBS (200 μL) and then PBS (200 μL) was added to each well. The plate was sealed and the degree of methyl ^14C-thymidine incorporation was quantified on a Packard Top Count.
(§13) Cell proliferation of the Hela cell line was measured using the ATP-Lite method as described in the ATP Lite Kit (Perkin-Elmer Kit Number 6106941) or the C^14 method as described above. Cell proliferation of the other cell lines was measured using the C^14 method.

Assay [2] concerns HeLa cervical adenocarcinoma. The assay can be described thus: Cell Proliferation Inhibition Assay, Hela (ATP Lite). Format: cell-based. Conditions: Homo sapiens, ATP-Lite method.
Description: as §6, §7, §8, §9, §10, §13

In another assay the test system is SKBR3 breast carcinoma. Kind of assay: Cell Proliferation Inhibition Assay, SKBR3 (14C-thymidine). Format: cell-based. Conditions: Homo sapiens, SK-BR-3, C14 method.
Description: as §6, §7, §8, §9, §10, §11, §12, §13

pIC50: −log10 of the molar value. “And” between values parts separate entries of the source, which are not always exact repeats. Equal values may be shown once.

What is called pIC50 is −log10 of the IC50, conventionally taken in molar units. In general, inhibition refers to the change of the read-out against control, counted positive when it falls.

T3 sequence (Q15303 676-1307): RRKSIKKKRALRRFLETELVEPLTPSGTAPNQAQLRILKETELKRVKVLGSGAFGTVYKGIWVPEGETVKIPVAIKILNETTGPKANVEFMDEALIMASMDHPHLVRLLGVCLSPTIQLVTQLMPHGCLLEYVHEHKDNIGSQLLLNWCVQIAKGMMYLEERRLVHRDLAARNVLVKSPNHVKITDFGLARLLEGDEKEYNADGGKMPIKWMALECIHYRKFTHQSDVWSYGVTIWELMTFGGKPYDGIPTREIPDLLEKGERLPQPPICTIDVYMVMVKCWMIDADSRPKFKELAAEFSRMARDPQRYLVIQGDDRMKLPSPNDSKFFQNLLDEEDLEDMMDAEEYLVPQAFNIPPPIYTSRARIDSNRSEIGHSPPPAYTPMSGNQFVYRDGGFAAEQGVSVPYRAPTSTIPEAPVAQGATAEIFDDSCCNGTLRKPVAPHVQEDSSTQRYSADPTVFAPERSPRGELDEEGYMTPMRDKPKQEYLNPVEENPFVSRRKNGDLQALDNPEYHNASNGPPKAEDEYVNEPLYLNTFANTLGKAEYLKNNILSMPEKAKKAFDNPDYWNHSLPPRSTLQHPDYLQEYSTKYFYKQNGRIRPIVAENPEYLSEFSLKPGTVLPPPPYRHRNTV
T1 sequence (P00533 669-1210 limits assumed): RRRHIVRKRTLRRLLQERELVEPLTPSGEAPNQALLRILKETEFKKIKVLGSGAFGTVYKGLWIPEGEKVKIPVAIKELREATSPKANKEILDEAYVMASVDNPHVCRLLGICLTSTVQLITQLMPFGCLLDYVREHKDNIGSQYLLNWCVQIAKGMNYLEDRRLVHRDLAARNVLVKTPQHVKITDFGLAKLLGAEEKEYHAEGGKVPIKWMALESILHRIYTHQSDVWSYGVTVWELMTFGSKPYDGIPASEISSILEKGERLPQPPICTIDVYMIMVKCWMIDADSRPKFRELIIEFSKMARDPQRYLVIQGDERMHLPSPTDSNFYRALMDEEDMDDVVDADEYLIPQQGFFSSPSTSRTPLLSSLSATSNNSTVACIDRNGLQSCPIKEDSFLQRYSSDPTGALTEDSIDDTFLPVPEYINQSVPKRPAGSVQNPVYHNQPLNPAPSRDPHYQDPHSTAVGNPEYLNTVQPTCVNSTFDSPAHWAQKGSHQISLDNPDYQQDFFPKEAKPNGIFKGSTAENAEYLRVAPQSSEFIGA

With `O=C(Nc1ccc(CN2CCC(F)CC2)cc1)c1sc2ncnc3c2c1NC(=O)N3c1ccc(Oc2ccccc2)cc1` [Cpd 250, 4-oxo-5-(4-phenoxy-phenyl)-4,5-dihydro-3H-1-thia-3,5,6,8-tetraaza-acenaphthylene-2-carboxylic acid [4-(4-fluoro-piperidin-1-ylmethyl)-phenyl]-amide], the pIC50 against EGFR is 7.43; on HER-2, 7.59; on HER-4 it was 7.48. The inhibition in vivo at 100 mg/kg in the assay on N87 cells is 68.9%.

Regarding `COC1CCN(Cc2ccc(NC(=O)c3sc4ncnc5c4c3NC(=O)N5c3ccc(Oc4ccccc4)cc3)cc2)CC1` [Cpd 261, 4-oxo-5-(4-phenoxy-phenyl)-4,5-dihydro-3H-1-thia-3,5,6,8-tetraaza-acenaphthylene-2-carboxylic acid [4-(4-methoxy-piperidin-1-ylmethyl)-phenyl]-amide], the pIC50 at EGFR is 7.74; at HER-2, 7.96. Moreover, the “percent inhibition A431” value was 44% in assay [1] (10 mg/kg); 54.1% in assay [1] (30 mg/kg); 86.1% and 80.1% in assay [1] (100 mg/kg). In the assay with N87 cells (25 mg/kg), the inhibition in vivo at 25 mg/kg worked out at 69.6%. The inhibition in vivo at 50 mg/kg with N87 cells (50 mg/kg) was found to be 71%. The inhibition in vivo at 100 mg/kg in the assay with N87 cells was found to be 75.4%. Besides, the “percent inhibition BT474” value in the assay on BT474 cells is recorded as 98%.

For the molecule `COc1cc(NC(=O)c2sc3ncnc4c3c2NC(=O)N4c2cccc(Br)c2)ccc1OCCN1CCCCC1` [Cpd 63, 5-(3-bromo-phenyl)-4-oxo-4,5-dihydro-3H-1-thia-3,5,6,8-tetraaza-acenaphthylene-2-carboxylic acid [3-methoxy-4-(2-piperidin-1-yl-ethoxy)-phenyl]-amide], the pIC50 was 6.98 against EGFR, at most 5.00 with BT474 breast carcinoma, 4.23 in [2] and 4.57 with SKBR3 breast carcinoma. The molecule further yielded an inhibition at 1 µM on HER-2 of 45%.

As to `O=C(Nc1ccc(CN2CCCCC2)cc1)c1sc2ncnc3c2c1NC(=O)N3c1ccc(F)c(Cl)c1` [Cpd 3, 5-(3-chloro-4-fluoro-phenyl)-4-oxo-4,5-dihydro-3H-1-thia-3,5,6,8-tetraaza-acenaphthylene-2-carboxylic acid (4-piperidin-1-ylmethyl-phenyl)-amide], the pIC50 at EGFR was 8.05; in the assay on BT474 breast carcinoma it was 5.02; in assay [2] it was 4.37; in the assay on SKBR3 breast carcinoma, 5.01. The molecule further gave an inhibition at 1 µM at HER-2 of 59%.

Turning to `COc1cc(NC(=O)c2sc3ncnc4c3c2NC(=O)N4c2ccc(Oc3ccccc3)cc2)ccc1CN1CCOCC1` [Cpd 176, 4-oxo-5-(4-phenoxy-phenyl)-4,5-dihydro-3H-1-thia-3,5,6,8-tetraaza-acenaphthylene-2-carboxylic acid (3-methoxy-4-morpholin-4-ylmethyl-phenyl)-amide], the values for the pIC50 at EGFR, at HER-2 and on HER-4 were 7.66, 7.92 and 7.33, respectively.

For the molecule `O=C(Nc1ccc(CN2CCOCC2)cc1)c1sc2ncnc3c2c1NC(=O)N3c1ccc(OCc2ccco2)c(Cl)c1` [Cpd 245, 5-[3-chloro-4-(furan-2-ylmethoxy)-phenyl]-4-oxo-4,5-dihydro-3H-1-thia-3,5,6,8-tetraaza-acenaphthylene-2-carboxylic acid (4-morpholin-4-ylmethyl-phenyl)-amide], the figures for the pIC50 against EGFR, on HER-2 and against HER-4 were 7.62, 7.32 and 6.64, respectively. The inhibition in vivo at 100 mg/kg in the assay on N87 cells stood at 48.7%.

For the molecule `O=C(Nc1ccc(CN2CCCC(F)C2)cc1)c1sc2ncnc3c2c1NC(=O)N3c1ccc(Oc2ccccc2)cc1` (centres unmarked) [Cpd 234, 4-oxo-5-(4-phenoxy-phenyl)-4,5-dihydro-3H-1-thia-3,5,6,8-tetraaza-acenaphthylene-2-carboxylic acid [4-(3-fluoro-piperidin-1-ylmethyl)-phenyl]-amide], the pIC50 at EGFR is 7.28; at HER-2, 7.47; against HER-4 it was 7.23.

Consider `O=C(Nc1ccc(CN2CCC(O)CC2)cc1)c1sc2ncnc3c2c1NC(=O)N3c1ccc(Oc2ccccc2)cc1` [Cpd 233, 4-oxo-5-(4-phenoxy-phenyl)-4,5-dihydro-3H-1-thia-3,5,6,8-tetraaza-acenaphthylene-2-carboxylic acid [4-(4-hydroxy-piperidin-1-ylmethyl)-phenyl]-amide], for which the pIC50 was 7.77 against EGFR, 8.05 at HER-2 and 8.05 against HER-4. Besides, the “percent inhibition A431” value in [1] (100 mg/kg) is recorded as 2.2%. Also, the inhibition in vivo at 100 mg/kg with N87 cells was 38.3%.

These data come from US7579356B2, “Thia-tetraazaacenaphthylene kinase inhibitors” (Janssen Pharmaceutica NV, priority 2005, dated 2009).
